Target: ROCK2 (human) (UniProt O75116)
Assay: Inhibition of ROCK2 Kinase Activity

Chain of ROCK2 (human) (O75116 whole entry, looked up): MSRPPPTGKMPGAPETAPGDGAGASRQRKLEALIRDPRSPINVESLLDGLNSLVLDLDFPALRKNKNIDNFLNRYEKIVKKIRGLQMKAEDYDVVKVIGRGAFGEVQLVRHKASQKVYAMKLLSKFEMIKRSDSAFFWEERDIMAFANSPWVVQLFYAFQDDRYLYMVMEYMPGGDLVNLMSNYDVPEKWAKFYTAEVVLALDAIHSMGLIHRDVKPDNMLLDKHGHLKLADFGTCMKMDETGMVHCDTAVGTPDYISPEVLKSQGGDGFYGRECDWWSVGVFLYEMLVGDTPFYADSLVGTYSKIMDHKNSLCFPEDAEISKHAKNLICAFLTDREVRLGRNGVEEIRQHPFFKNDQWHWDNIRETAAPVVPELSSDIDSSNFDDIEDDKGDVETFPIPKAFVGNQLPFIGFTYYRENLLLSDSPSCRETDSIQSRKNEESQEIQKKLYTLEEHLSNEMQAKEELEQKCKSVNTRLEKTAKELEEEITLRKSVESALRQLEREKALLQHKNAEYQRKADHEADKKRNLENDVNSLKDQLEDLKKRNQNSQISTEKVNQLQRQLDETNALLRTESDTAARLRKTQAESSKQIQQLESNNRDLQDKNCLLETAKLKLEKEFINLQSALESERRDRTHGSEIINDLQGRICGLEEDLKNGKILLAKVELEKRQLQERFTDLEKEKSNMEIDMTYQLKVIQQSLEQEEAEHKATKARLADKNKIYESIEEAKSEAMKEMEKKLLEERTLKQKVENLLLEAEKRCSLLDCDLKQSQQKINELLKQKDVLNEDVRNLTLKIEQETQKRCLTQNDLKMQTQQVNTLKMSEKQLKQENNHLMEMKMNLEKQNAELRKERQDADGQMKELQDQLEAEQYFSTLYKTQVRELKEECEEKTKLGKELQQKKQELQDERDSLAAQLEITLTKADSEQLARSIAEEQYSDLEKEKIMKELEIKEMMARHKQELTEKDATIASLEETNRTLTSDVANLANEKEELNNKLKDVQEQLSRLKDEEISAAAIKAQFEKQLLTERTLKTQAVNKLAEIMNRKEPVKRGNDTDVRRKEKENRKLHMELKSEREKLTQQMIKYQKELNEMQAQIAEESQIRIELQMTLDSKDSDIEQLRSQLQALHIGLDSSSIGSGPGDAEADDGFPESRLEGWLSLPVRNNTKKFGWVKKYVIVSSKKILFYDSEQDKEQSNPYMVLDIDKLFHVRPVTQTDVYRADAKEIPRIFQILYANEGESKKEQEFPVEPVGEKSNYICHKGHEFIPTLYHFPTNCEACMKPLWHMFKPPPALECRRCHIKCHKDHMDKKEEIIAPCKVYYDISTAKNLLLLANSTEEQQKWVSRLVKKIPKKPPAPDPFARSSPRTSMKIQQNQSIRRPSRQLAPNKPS

Row | SMILES | IC50 [µM]
1 | O=C(C=Cc1cccc(O)c1)NCc1nc(-c2ccncc2)n[nH]1 | > 5
2 | Cc1ccc(C(=O)CCC(=O)NCc2nc(-c3c[nH]c4ncccc34)n[nH]2)cc1 | > 5
3 | CC(=O)NCc1nc(-c2c[nH]c3ncccc23)n[nH]1 | > 5
4 | O=C(NCc1nc(-c2ccncc2)n[nH]1)c1cccc(F)c1F | > 5
5 | O=C(NCc1nc(-c2c[nH]c3ncccc23)n[nH]1)c1ccccc1O | > 5
6 | O=C(NCc1nc(-c2ccncc2)no1)c1cccs1 | > 5
7 | CC(NC(=O)c1cccs1)c1nc(-c2ccncc2)n[nH]1 (stereo not drawn) | ≤ 5
8 | O=Cc1ccc(C(=O)NCc2nc(-c3ccncc3)n[nH]2)cc1 | > 5
9 | COc1ccc(Cl)cc1C(=O)NCc1nc(-c2c[nH]c3ncccc23)n[nH]1 | > 5
10 | CCC(C)C(NC(=O)OC(C)(C)C)C(=O)NCc1nc(-c2c[nH]c3ncccc23)n[nH]1 (stereo not drawn) | > 5
11 | COc1cc(OC)c(C(=O)NCc2nc(-c3ccncc3)n[nH]2)cc1OC | > 5
12 | O=C(NCc1nc(-c2ccncc2)n[nH]1)c1cc(F)ccc1[N+](=O)[O-] | > 5
13 | N#Cc1ccc(C(=O)NCc2nc(-c3c[nH]c4ncccc34)n[nH]2)cc1 | > 5
14 | O=C(NCc1nc(-c2c[nH]c3ncccc23)n[nH]1)c1ccccc1Cl | > 5
15 | O=C(NCc1nc(-c2ccncc2)n[nH]1)c1ccc(C(F)(F)F)cc1[N+](=O)[O-] | > 5
16 | CC(=O)c1ccc(C(=O)NCc2nc(-c3c[nH]c4ncccc34)n[nH]2)cc1 | ≤ 5
17 | CCOc1ccc2ccccc2c1C(=O)NCc1nc(-c2c[nH]c3ncccc23)n[nH]1 | > 5
18 | O=C(Cc1c(F)cccc1F)NCc1nc(-c2c[nH]c3ncccc23)n[nH]1 | > 5
19 | O=C(NCc1nc(-c2c[nH]c3ncccc23)n[nH]1)c1ccccc1C(F)(F)F | > 5
20 | Cc1ccccc1CCC(=O)NCc1nc(-c2c[nH]c3ncccc23)n[nH]1 | > 5
21 | O=C(NCc1nc(-c2c[nH]c3ncccc23)n[nH]1)c1ccc2cc(O)ccc2c1 | > 5
22 | O=C(NCc1nc(-c2ccncc2)n[nH]1)c1ccc(Cl)cc1[N+](=O)[O-] | > 5
23 | CC(C)(C)OC(=O)N1CCCCC1C(=O)NCc1nc(-c2ccncc2)n[nH]1 (stereo not drawn) | > 5
24 | O=C(NCc1nc(-c2ccncc2)n[nH]1)c1cc([N+](=O)[O-])ccc1F | > 5
25 | O=C(NCc1nc(-c2ccncc2)n[nH]1)c1cc(F)c(Cl)cc1F | > 5
26 | CC(C(=O)NCc1nc(-c2ccncc2)n[nH]1)c1cccc(C(=O)c2ccccc2)c1 (stereo not drawn) | > 5

Row | SMILES | IC50 [µM]
27 | Cc1ccccc1CCC(=O)NCc1nc(-c2ccncc2)n[nH]1 | > 5
28 | O=C(NCc1nc(-c2ccncc2)n[nH]1)c1ccc(OCc2ccccc2)cc1 | > 5
29 | O=C(C=Cc1ccc2c(c1)OCO2)NCc1nc(-c2c[nH]c3ncccc23)n[nH]1 | > 5
30 | O=C(NCc1nc(-c2ccncc2)n[nH]1)c1ccc(F)cc1 | > 5
31 | Cc1cc(C(=O)NCc2nc(-c3ccncc3)n[nH]2)ccc1O | ≤ 5
32 | COc1ccccc1C=CC(=O)NCc1nc(-c2c[nH]c3ncccc23)n[nH]1 | > 5
33 | COc1cccc(C(=O)NCc2nc(-c3c[nH]c4ncccc34)n[nH]2)c1OC | > 5
34 | CC(CC(=O)NCc1nc(-c2ccncc2)n[nH]1)CC(C)(C)C (stereo not drawn) | > 5
35 | COc1ccc2cc(C(C)C(=O)NCc3nc(-c4c[nH]c5ncccc45)n[nH]3)ccc2c1 (stereo not drawn) | > 5
36 | O=C(NCc1nc(-c2ccncc2)n[nH]1)c1cccc(Cl)c1Cl | > 5
37 | O=C(NCc1nc(-c2ccncc2)n[nH]1)C1CCc2ccccc2C1 (stereo not drawn) | > 5
38 | Cc1c(Cl)ccc(S(=O)(=O)NCc2nc(-c3ccncc3)n[nH]2)c1O | > 5
39 | Cc1ccc(O)c(C(=O)NCc2nc(-c3c[nH]c4ncccc34)n[nH]2)c1 | > 5
40 | O=C(NCc1nc(-c2c[nH]c3ncccc23)n[nH]1)c1ccc([N+](=O)[O-])c(O)c1 | > 5
41 | O=C(NCc1nc(-c2c[nH]c3ncccc23)n[nH]1)c1cccs1 | ≤ 5
42 | O=C(CC1Cc2ccccc2C1)NCc1nc(-c2c[nH]c3ncccc23)n[nH]1 | > 5
43 | O=C(Cc1ccc2c(c1)OCO2)NCc1nc(-c2ccncc2)n[nH]1 | > 5
44 | CC(C)Cc1ccc(C(C)C(=O)NCc2nc(-c3ccncc3)n[nH]2)cc1 (stereo not drawn) | > 5
45 | NC1CCN(C(=O)Cc2nc(-c3ccncc3)n[nH]2)C1 (stereo not drawn) | > 5
46 | O=C(NCc1nc(-c2c[nH]c3ncccc23)n[nH]1)c1ccc(F)cc1 | > 5
47 | O=C(NCc1nc(-c2ccncc2)n[nH]1)c1cc([N+](=O)[O-])ccc1O | > 5
48 | COc1ccc(OC)c(C(=O)NCc2nc(-c3c[nH]c4ncccc34)n[nH]2)c1 | > 5
49 | O=C(NCc1nc(-c2ccncc2)n[nH]1)c1ccncc1Cl | > 5
50 | Cc1cccc(C(=O)NCc2nc(-c3ccncc3)n[nH]2)c1O | ≤ 5
51 | O=C(Cc1ccc(Br)cc1)NCc1nc(-c2ccncc2)n[nH]1 | > 5
52 | O=Cc1ccccc1C(=O)NCc1nc(-c2ccncc2)n[nH]1 | > 5

Row | SMILES | IC50 [µM]
53 | O=C(C=Cc1ccc(Cl)cc1)NCc1nc(-c2c[nH]c3ncccc23)n[nH]1 | > 5
54 | O=C(NCc1nc(-c2c[nH]c3ncccc23)n[nH]1)c1cccc(I)c1 | > 5
55 | O=C(NCc1nc(-c2c[nH]c3ncccc23)n[nH]1)C(Cl)(Cl)Cl | > 5
56 | CCCCOc1ccc(C(=O)NCc2nc(-c3c[nH]c4ncccc34)n[nH]2)cc1 | > 5
57 | COc1cc(OC)c(C(=O)NCc2nc(-c3ccncc3)n[nH]2)c(OC)c1 | > 5
58 | CC(C)(C)OC(=O)NC1CCN(C(=O)Cc2nc(-c3ccncc3)n[nH]2)C1 (stereo not drawn) | > 5
59 | O=C(NCc1nc(-c2ccncc2)n[nH]1)c1cccc2ccccc12 | > 5
60 | Cc1ccc(C(=O)NCc2nc(-c3ccncc3)n[nH]2)cc1F | > 5
61 | Cc1ccc(C(=O)NCc2nc(-c3c[nH]c4ncccc34)n[nH]2)cc1 | > 5
62 | O=C(CCc1ccccc1O)NCc1nc(-c2ccncc2)n[nH]1 | > 5
63 | O=C(NCc1nc(-c2ccncc2)n[nH]1)c1ccc(F)cc1Cl | > 5
64 | O=C(NCc1nc(-c2c[nH]c3ncccc23)n[nH]1)c1cc(F)c(Cl)cc1F | > 5
65 | O=C(NCc1nc(-c2ccncc2)n[nH]1)c1cc(Br)ccc1Cl | > 5
66 | O=C(NCc1nc(-c2ccncc2)n[nH]1)c1cc([N+](=O)[O-])ccc1Cl | > 5
67 | O=C(NCc1nc(-c2ccncc2)n[nH]1)C1=CCCC1 | > 5
68 | O=C(NCc1nc(-c2c[nH]c3ncccc23)n[nH]1)c1ccc(-c2ccc(O)cc2)cc1 | > 5
69 | O=C(NCc1nc(-c2c[nH]c3ncccc23)n[nH]1)c1cccnc1Cl | > 5
70 | COc1cc(C(=O)NCc2nc(-c3c[nH]c4ncccc34)n[nH]2)cc(OC)c1OC | > 5
71 | O=C(NCc1nc(-c2ccncc2)n[nH]1)c1cccc(Br)n1 | > 5
72 | CC(C)(C)OC(=O)NCCCC(NC(=O)c1ccc(O)cc1O)c1nc(-c2ccncc2)n[nH]1 (stereo not drawn) | ≤ 5
73 | O=C(NCc1nc(-c2c[nH]c3ncccc23)n[nH]1)c1ccc(F)cc1F | > 5
74 | COc1ccc(C(=O)NCc2nc(-c3ccncc3)n[nH]2)c(OC)c1OC | > 5
75 | Cc1c(C(=O)NCc2nc(-c3c[nH]c4ncccc34)n[nH]2)cccc1[N+](=O)[O-] | > 5
76 | O=C(NCc1nc(-c2ccncc2)n[nH]1)c1cc(F)c(F)c(O)c1F | > 5
77 | Cc1ccc(O)c(C(=O)NCc2nc(-c3ccncc3)n[nH]2)c1 | > 5
78 | Cn1nc(-c2ccncc2)nc1CNC(=O)c1cccs1 | > 5

Reference: the Kinase Knowledgebase extract (Sharma et al. 2016)
